This is an account of results in patent US10350220B2, “Methods and materials for reducing suppression of immune function” (Mayo Foundation for Medical Education and Research, priority 2011, dated 2019).

This assay relates to CD14+ cells co-cultured with a renal cell tumor line (ACHN). The experiment in a line: HLA-DR expression of isolated CD14+ cells co-cultured with ACHN renal cell tumor line, flow cytometry. The settings on record: CD14+ cells exposed to ACHN cancer cells, RU486 5 or 20 μM added day 0; compared with cells exposed to cancer cells and not treated.

Each structure is given as a SMILES string.

Turning to `CC#C[C@]1(O)CC[C@H]2[C@@H]3CCC4=CC(=O)CCC4=C3[C@@H](c3ccc(N(C)C)cc3)C[C@@]21C` [RU486, mifepristone], the “HLA-DR expression (MFI of HLA-DR staining, FIG. 1)” value was “more HLA-DR expression than cells exposed to cancer cells and not treated with RU486”.
